Reference: US20250339470A1, “METHODS AND COMPOSITIONS FOR MATURING CARDIOMYOCYTES” (President and Fellows of Harvard College, priority 2024, published 2025)
“Also recorded” adds a separate entry of the source.

Columns and labels:
hiPSC-CMs = experiment: qPCR mRNA expression of hiPSC-CMs cultured 7 days on SAP-coated plates; type: cell-based, human; details: 7 days on 0.25% SAP coating; control Geltrex
Experimental: At day 14 of cardiomyocyte differentiation, completion of the protocol was confirmed. Fully beating cardiomyocyte embryoid bodies were dissociated using the cardiomyocyte dissociation kit (STEMdiff Cardiomyocyte Dissociation Kit, […] Technologies, Canada) and reseeded (1.2 million cells/well) onto 6-well plates, which were prepared as follows. Each 6-well plate had 3 wells coated with Geltrex (control) and 3 wells coated with one of four self-assembling peptides (SAPs) at 0.25% concentration such that the differentiated cardiomyocytes would be cultured with the SAP. Specifically, the following SAPs were used in this study: RADA16, IEIK13, KLD12, and QLEL12. The cells were maintained for further in vitro analysis. Total RNA was extracted 7 days after initial exposure to each SAP to analyze messenger RNA (mRNA) expression of cardiomyocyte genes characteristics of an adult-like state. The inventors used Tryzol (TRIzol Reagent, Invitrogen, USA) to extract total RNA and a purification kit (E.Z.N.A. Total RNA kit I, Omega Bio-tec, Inc., Georgia, USA) according to the manufacturer's instructions. After quantification, RNA was reverse transcribed to cDNA using the High-Capacity cDNA Reverse Transcription Kit (Applied Biosystems) according to the manufacturer's instructions. Quantitative Polymerase Chain Reaction (qPCR) was performed in triplicate for each sample using the iTaq Universal SYBR Green Supermix (Bio-Rad) and the primer pairs (table S3) with a Bio-Rad CFX384 Real-Time thermal cycler. Double delta analyses were performed to compute the relative mRNA expression of each target gene using glyceraldehyde-3-phosphate dehydrogenase (GAPDH) as a housekeeping control gene.

[1] = test system: hiPSC-CMs transplanted into rat hearts; experiment: Electrophysiological recording with flexible mesh nanoelectronics (Langendorff); type: in vivo; details: 3 months after transplantation into the athymic rat heart
Experimental: The inventors used RNU nude rats (8-10 weeks old, male, 250-350 g). Rats received cyclosporine injections (15 mg/kg) as an immunosuppressant a day before the injection and every day after surgery. […] After at least five days of observation in healthy conditions, the rats were applied to the electrophysiological study. […] As a pre-surgical analgesic, buprenorphine (0.1 mg/kg) was administered to the rats before anesthesia. […] The distal ascending aorta was ligated with a 4-0 silk suture, followed by infusion of heparin to coronary arteries, with the right atrium cut open to infuse efficiently with decreased right atrium pressure. […] The temperature of the circulated solution, the chamber of the Langendorff, and the heart rate were monitored with a data acquisition system (Bridge Amp (PowerLab 8/30, ADInstruments, USA), Bio Amp (Product code: FE231, ADInstruments, USA), Spring Clip Electrodes (Product code: MLA1214, AD ADInstruments, USA), and LabChart software v8.1.20) until the heart beating became stable. […] The inventors analyzed the electrophysiological data with a customized Python script. […] The inventors then detected electrical spikes using “find_peaks” from Scipy. The inventors manually curated the detected spikes into host sinus rhythm, automaticity/arrhythmia rhythm, and noises. […] The spikes were recorded at both the injection and reference sites. • 2. […]

[2] = test system: hiPSC-CMs injected into the rat left ventricle wall; experiment: Sarcomere organization (SOTA), orientation and length of injected hiPSC-CMs; type: in vivo; details: 7 days post-injection
Experimental: The sections were stained with anti-cardiac troponin T antibody (Alexa Fluor 647 Mouse Anti-Cardiac Troponin T (cat #565744): cTnT, BD Pharmagen. 1:200), anti-human troponin I antibody (Recombinant Anti-Cardiac Troponin I antibody [EP1106Y] (ab52862): hTnI, Abcam 1:250), and DAPI as performed in the immunofluorescent staining. […] In this study, the inventors applied SarcOmere Texture Analysis (SOTA) to quantify sarcomere organization (17). SOTA was conducted by independent investigators who had no prior knowledge of the sample information. This methodological approach minimized potential biases and enhanced the reliability of the results.
hiPSC-CMs were stained with hTnI to identify myofilaments. […]
Sarcomere length was measured as the distance between hTnI-stained Z-lines from cardiomyocytes with visible sarcomere structures. An average of 10 sarcomeres from each sample was calculated on an interpolated YZ projection to account for spatial distribution across different regions of the image (45). […]
The inventors performed the automated analysis of sarcomere organization using SOTA, which was previously validated in endogenous, direct reprogrammed, and induced pluripotent-derived cardiomyocytes (17). […] The inventors also calculated the primary sarcomere orientation using the SOTA angle of peak prominence. […]

Row | Substance | expression of KCNJ2 (hiPSC-CMs) | ventricular bigeminy [1] | sarcomere length [2] | expression of GJA1 (hiPSC-CMs) | expression of NANOG (hiPSC-CMs) | ratio of MYH7 mRNA expression to MYH6 expression (hiPSC-CMs) | ratio of TNNI3 to TNNI1 expression (hiPSC-CMs)
1 | IEIK13 | significantly higher | – | – | – | – | – | –
2 | RADA16 | significantly higher; also recorded: highest expression | not observed | not associated with a difference | significantly higher in the RADA16 group compared to all other SAP groups and the control group; also recorded: highest expression | significantly lower in the RADA16 and control groups than in the IEIK13 group; also recorded: no significant difference between the control and RADA16 group; also recorded: significantly declined | significantly higher in the RADA16 group than in the IEIK13 and QLEL12 groups; also recorded: not significantly different between the RADA16 and control groups nor the RADA16 and KLD12 groups; also recorded: most pronounced increase | higher TNNI3/TNNI1 expression ratio
3 | KLD12 | significantly higher | – | – | – | – | – | –
